This is an account of results in ChEMBL document CHEMBL1221200, “Diarylquinolines target subunit c of mycobacterial ATP synthase” (Nat Chem Biol, 2007).

Usually MIC90 stands for the lowest concentration that inhibits either 90% of growth or 90% of the strains tested, depending on the study. As a reminder, the MIC is the lowest concentration found to suppress growth. One may read the Kd as the free concentration of one partner at which half of the binding sites on the other are occupied at equilibrium, for simple one-to-one binding. Low readings indicate tighter binding, high ones weaker binding. A word on the IC50: it is the concentration that inhibits the measured activity by half. Lower therefore signals greater potency in that assay.

Structures are written as SMILES. Values after ≈ are worked out from the molar mass of the structure shown. Active and inactive are the calls of the source. The calls are words filed in the database; no cut-off is given here.

Experiment [1] relates to Mycolicibacterium smegmatis. Nature of the experiment: Antimicrobial activity against Mycobacterium smegmatis ATCC 607 by alamar blue assay. The experiment is classed as functional.
Experiment [2] relates to Mycobacterium tuberculosis. Nature of the experiment: Antimicrobial activity against Mycobacterium tuberculosis by alamar blue assay. The experiment is classed as functional. (Alamar Blue is a resazurin reagent that responds to reducing activity.)
For experiment [3], the system named is Mycobacterium tuberculosis. Nature of the experiment: Antimicrobial activity against Mycobacterium tuberculosis H37Rv by […] dilution method. The experiment is classed as functional. For orientation: In broth dilution the organism is exposed to a series of concentrations in liquid medium.
For experiment [4], the system named is Mycolicibacterium smegmatis. The experiment is described as follows: Antimicrobial activity against wild type Mycobacterium smegmatis ATCC 607 expressing vector pSD5 by 7H10 agar dilution method. The experiment is classed as functional.
Experiment [5] concerns Mycolicibacterium smegmatis. The experiment is described as follows: Antimicrobial activity against Mycobacterium smegmatis ATCC 607 expressing ATP synthase AtpE subunit by 7H9 agar dilution method. The experiment is classed as functional. (In general: In agar dilution, organisms are placed on agar that contains the substance at set levels.)
In experiment [6] the test system is Mycolicibacterium smegmatis. The experiment is described as follows: Antimicrobial activity against wild type Mycobacterium smegmatis ATCC 607 by 7H9 agar dilution method. The experiment is classed as functional.
Experiment [7] has as its system Mycolicibacterium smegmatis. The experiment is described as follows: Antimicrobial activity against Mycobacterium smegmatis expressing ATP synthase AtpE D32V mutant protein by 7H10 agar dilution method. The experiment is classed as functional.
The test system of experiment [8] is Mycolicibacterium smegmatis. The experiment is described as follows: Ratio of MIC for Mycobacterium smegmatis isolate R09 expressing ATP synthase AtpE D32V mutant protein to MIC for wild type Mycobacterium smegmatis. The experiment is classed as functional.
The test system of experiment [9] is Mycolicibacterium smegmatis. The experiment is described as follows: Antimicrobial activity against wild type Mycobacterium smegmatis ATCC 607 by 7H10 agar dilution method. The experiment is classed as functional.
Experiment [10] concerns Mycobacterium tuberculosis. The experiment is described as follows: Antimicrobial activity against Mycobacterium tuberculosis H37Rv by 7H9 broth dilution method. The experiment is classed as functional.
For the next experiment, the target named is ATP synthase subunit c (Bacillus sp., UniProt P00845). The experiment is described as follows: Binding affinity to Bacillus PS3 ATP synthase subunit c. More on the design: species or system Bacillus sp. PS3.
Sequence of ATP synthase subunit c (P00845 whole entry): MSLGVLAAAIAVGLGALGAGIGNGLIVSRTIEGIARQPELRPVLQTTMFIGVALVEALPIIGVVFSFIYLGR
Experiment [11] deals with Mycolicibacterium smegmatis. The experiment is described as follows: Antimicrobial activity against Mycobacterium smegmatis expressing ATP synthase AtpE D32V mutant protein by 7H9 agar dilution method. The experiment is classed as functional.
Experiment [12] relates to Mycolicibacterium smegmatis. The experiment is described as follows: Antimicrobial activity against wild-type Mycobacterium smegmatis ATCC 607 expressing ATP synthase AtpE subunit by 7H10 agar dilution method. The experiment is classed as functional.
In experiment [13] the target is Putative uncharacterized protein atpE (Mycolicibacterium smegmatis, UniProt Q5TIX5). Nature of the experiment: Inhibition of Mycobacterium smegmatis ATCC 607 ATP synthase subunit c-mediated ATP synthesis after 60 mins by luminometry.
Sequence of Putative uncharacterized protein atpE (Q5TIX5 whole entry): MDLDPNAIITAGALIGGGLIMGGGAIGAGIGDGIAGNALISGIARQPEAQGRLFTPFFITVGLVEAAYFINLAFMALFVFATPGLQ
Experiment [14] relates to Mycolicibacterium smegmatis. Nature of the experiment: Antimicrobial activity against Mycobacterium smegmatis isolate R09 expressing ATP synthase AtpE D32V mutant protein by 7H9 agar dilution method. The experiment is classed as functional.
The subject of experiment [15] is Mycolicibacterium smegmatis. The experiment is described as follows: Antimicrobial activity against wild type Mycobacterium smegmatis ATCC 607 expressing vector pSD5 by 7H9 agar dilution method. The experiment is classed as functional.
Experiment [16] concerns Mycolicibacterium smegmatis. The experiment is described as follows: Ratio of MIC for Mycobacterium smegmatis expressing ATP synthase AtpE D32V mutant protein to MIC for wild type Mycobacterium smegmatis ATCC 607 expressing vector pSD5. The experiment is classed as functional.
The nature of experiment [17]: Binding affinity to Bacillus PS3 ATP synthase subunit c A63P mutant. On the set-up: species or system Bacillus sp. PS3.
Experiment [18] has as its system Mycolicibacterium smegmatis. Nature of the experiment: Antimicrobial activity against Mycobacterium smegmatis isolate R09 expressing ATP synthase AtpE D32V mutant protein by 7H10 agar dilution method. The experiment is classed as functional.
In experiment [19] the target is ATP synthase subunit alpha (Bacillus sp.) (UniProt P09219). The experiment is described as follows: Binding affinity to Bacillus PS3 ATP synthase subunit alpha by mass spectroscopy.
Sequence of ATP synthase subunit alpha (Bacillus sp.) (P09219 whole entry): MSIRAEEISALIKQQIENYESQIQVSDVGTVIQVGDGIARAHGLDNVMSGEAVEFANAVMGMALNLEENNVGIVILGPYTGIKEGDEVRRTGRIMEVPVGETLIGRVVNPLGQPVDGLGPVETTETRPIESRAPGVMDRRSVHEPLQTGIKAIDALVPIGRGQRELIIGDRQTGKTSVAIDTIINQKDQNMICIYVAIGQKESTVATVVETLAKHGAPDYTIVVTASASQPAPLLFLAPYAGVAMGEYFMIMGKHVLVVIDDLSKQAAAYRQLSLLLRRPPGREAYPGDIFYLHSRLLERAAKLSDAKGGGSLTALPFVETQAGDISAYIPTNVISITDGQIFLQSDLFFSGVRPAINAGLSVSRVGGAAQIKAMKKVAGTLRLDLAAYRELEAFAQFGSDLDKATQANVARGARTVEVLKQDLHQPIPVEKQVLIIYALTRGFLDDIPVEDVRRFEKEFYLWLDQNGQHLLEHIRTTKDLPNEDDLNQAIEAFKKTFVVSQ
The test system of experiment [20] is Mycolicibacterium smegmatis. Nature of the experiment: Binding affinity to Mycobacterium smegmatis ATCC 607 ATP synthase subunit alpha by mass spectroscopy.
Experiment [21] deals with Mycobacterium tuberculosis. The experiment is described as follows: Antimicrobial activity against wild-type Mycobacterium tuberculosis expressing ATP synthase AtpE assessed as growth inhibition in early log-phase by 7H10 agar dilution method. The experiment is classed as functional, organism-based.
Experiment [22] relates to Mycolicibacterium smegmatis. Nature of the experiment: Binding affinity to Mycobacterium smegmatis ATCC 607 ATP synthase subunit beta by mass spectroscopy.
The target in experiment [23] is ATP synthase subunit beta (Bacillus sp.) (UniProt P07677). Nature of the experiment: Binding affinity to Bacillus PS3 ATP synthase subunit beta by mass spectroscopy.
Sequence of ATP synthase subunit beta (Bacillus sp.) (P07677 whole entry): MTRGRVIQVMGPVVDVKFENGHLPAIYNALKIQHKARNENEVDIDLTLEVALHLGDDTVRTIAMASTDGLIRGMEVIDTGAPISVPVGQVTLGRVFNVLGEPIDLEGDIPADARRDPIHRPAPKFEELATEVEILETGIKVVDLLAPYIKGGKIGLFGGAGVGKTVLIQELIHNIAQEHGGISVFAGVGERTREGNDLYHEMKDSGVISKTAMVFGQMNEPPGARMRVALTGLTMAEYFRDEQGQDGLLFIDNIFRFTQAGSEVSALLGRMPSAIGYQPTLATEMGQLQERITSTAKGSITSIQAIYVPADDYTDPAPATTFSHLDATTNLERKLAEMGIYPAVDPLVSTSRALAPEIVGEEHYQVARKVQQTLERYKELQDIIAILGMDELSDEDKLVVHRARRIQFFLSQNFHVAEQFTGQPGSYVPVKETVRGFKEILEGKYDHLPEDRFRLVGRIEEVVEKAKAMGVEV
Experiment [24] has as its target ATP synthase subunit c (Mycobacterium tuberculosis (strain CDC 1551 / Oshkosh)) (UniProt P9WPS0). Nature of the experiment: Inhibition of Mycobacterium tuberculosis ATP synthase subunit c-mediated ATP synthesis after […] by luminometry.

Sequence of ATP synthase subunit c (Mycobacterium tuberculosis (strain CDC 1551 / Oshkosh)) (P9WPS0 whole entry): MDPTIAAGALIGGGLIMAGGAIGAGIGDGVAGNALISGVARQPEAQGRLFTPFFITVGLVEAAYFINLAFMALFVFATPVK

In the case of `COc1nc2ccc(Br)cc2cc1[C@H](c1ccccc1)[C@@](O)(CCN(C)C)c1cccc2ccccc12` (racemic; 1d), the MIC90 in experiment [1] was 0.08 µg/mL (≈ 0.144 µM); in experiment [2] it was 1.8 µg/mL (≈ 3.24 µM).

For `COc1nc2ccc(Br)cc2cc1[C@@H](c1ccccc1)[C@@](O)(CCN(C)C)c1cccc2ccccc12` [BEDAQUILINE], the MIC in experiment [3] was determined as 0.05 µg/mL (≈ 0.09 µM); in experiment [4] it was 0.003 µg/mL (≈ 0.0054 µM); in [5] it was 0.003 µg/mL (≈ 0.0054 µM); in experiment [6], 0.003 µg/mL (≈ 0.0054 µM); in [7], 0.4 µg/mL (≈ 0.72 µM); in experiment [9], 0.003 µg/mL (≈ 0.0054 µM). Besides, the MIC in experiment [10] worked out at 0.03 µg/mL (≈ 0.054 µM); in experiment [11], 0.5 µg/mL (≈ 0.9 µM); in experiment [12], 0.003 µg/mL (≈ 0.0054 µM); in experiment [14] it was 0.6 µg/mL (≈ 1.08 µM); in [15], 0.003 µg/mL (≈ 0.0054 µM); in experiment [18] it was 0.7 µg/mL (≈ 1.26 µM). Moreover, the Ratio in [8] and in experiment [16] was greater than 100 throughout. Also, the results for the Kd (at ATP synthase subunit c; in experiment [17]) were 500 nM and 1500 nM, respectively. This compound also displayed an IC50 in experiment [13] of 2.5 nM. The results for the MIC90 in experiment [1] and in [2] were 0.004 µg/mL (≈ 0.0072 µM) and 0.06 µg/mL (≈ 0.108 µM), respectively.

In [13], `COc1nc2ccc(Br)cc2cc1[C@H](c1ccccc1)[C@@](O)(CCN(C)C)c1cccc2ccccc12` (racemic; 1c) gave an IC50 of 750 nM. Also, the MIC90 came out at 7 µg/mL (≈ 12.6 µM) in experiment [1] and 44 µg/mL (≈ 79.2 µM) in [2].

On to `CO[C@H]1/C=C/O[C@@]2(C)Oc3c(C)c(O)c4c(O)c(c(/C=N/N5CCN(C)CC5)c(O)c4c3C2=O)NC(=O)/C(C)=C\C=C\[C@H](C)[C@H](O)[C@@H](C)[C@@H](O)[C@@H](C)[C@H](OC(C)=O)[C@@H]1C` [RIFAMPIN], for which the MIC90 was determined as 8.2 µg/mL (≈ 9.96 µM) in experiment [1] (Mycolicibacterium smegmatis, ATCC 607, read-out: MIC90) and 0.13 µg/mL (≈ 0.158 µM) in experiment [2] (Mycobacterium tuberculosis, read-out: MIC90).

`COc1nc2ccc(Br)cc2cc1[C@@H](c1ccccc1)[C@@](O)(CCN(C)C)c1cccc2ccccc12` (single isomer, unassigned) [BEDAQUILINE] returned an IC50 in [13] of 25 nM. Moreover, the MIC90 in [1] was 0.35 µg/mL (≈ 0.63 µM); in experiment [2] it was 8.8 µg/mL (≈ 15.8 µM).

Turning to `COc1nc2ccc(Br)cc2cc1[C@@H](c1ccccc1)[C@@](O)(CCN(C)C)c1cccc2ccccc12`, the result in [19], in [20], in [21], in [22] and in [23] was Active. Moreover, the inhibition result in experiment [24] is “Dose-dependent effect”.
